This note sets out measurements from patent US20230117034A1, “PYRAZOLOTRIAZINES” (Bayer Aktiengesellschaft, priority 2019, published 2023).

Where two headings read alike, the source gives them in different places. Where only a bound is given, the exact number is not on record here.

Assay [1] addresses CDK12/CycK (Homo sapiens, UniProt Q9NYV4). In words: CDK12/CycK high ATP kinase assay (TR-FRET, 2 mM ATP). In kind it is biochemical. The settings on record: 2 mM ATP (high ATP); median; read-out: CDK12/CyclinK, 2 mM ATP (high ATP), IC50-[mol/l] (median). Summed up:
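Read-out is TR-FRET (Eu-anti-rabbit IgG, anti-phospho-c-Myc Ser62 antibody, streptavidin-XL665) after EDTA stop. Reaction ran 60 min at 22 °C using 1 µM biotin-peptide and high ATP (2 mM) with roughly 0.75 nM recombinant CDK12/CycK, after 15 min compound pre-binding; normalised emission ratios yield IC50.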

In assay [2] the test system is BRCA1 mRNA expression in MDA-MB-231 cells. As to the kind of experiment: qRT-PCR assay: BRCA1 mRNA expression in MDA-MB-231. In kind it is cell-based, human. Conditions: Homo sapiens, MDA-MB-231, Inhibition of BRCA1 mRNA expression in MDA-MB-231 cells; median; read-out: RTqPCR-MDA-MB-231, IC50, BRCA1 (median). An outline of the steps:
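BRCA1 transcript by RT-qPCR relative to GAPDH, from 600 ng RNA converted to cDNA. MDA-MB-231 cells plated at 200,000/well received test compound continuously for 24 h, starting 24 h post-seeding.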

Assay [3] deals with CAL-120, human breast adenocarcinoma cells. As to the kind of experiment: Proliferation assay CAL-120 (crystal violet, 4 days). The settings on record: CAL-120 cells, median, read-out: Prolif-CAL-120, IC50-[mol/l] (median). The assay is classed as cell-based. An outline of the steps: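 IC50 from a 4-parameter fit of crystal violet absorbance (595 nm), scaled between the day-of-dosing plate (0%) and vehicle cells (100%). MDA-MB-231 or CAL-120 cells were treated for 4 days with 0.01–10 micromol/L compound in 0.1% DMSO after 24 h attachment.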

Sequence of CDK12/CycK (Q9NYV4 with tags, fused parts or gaps): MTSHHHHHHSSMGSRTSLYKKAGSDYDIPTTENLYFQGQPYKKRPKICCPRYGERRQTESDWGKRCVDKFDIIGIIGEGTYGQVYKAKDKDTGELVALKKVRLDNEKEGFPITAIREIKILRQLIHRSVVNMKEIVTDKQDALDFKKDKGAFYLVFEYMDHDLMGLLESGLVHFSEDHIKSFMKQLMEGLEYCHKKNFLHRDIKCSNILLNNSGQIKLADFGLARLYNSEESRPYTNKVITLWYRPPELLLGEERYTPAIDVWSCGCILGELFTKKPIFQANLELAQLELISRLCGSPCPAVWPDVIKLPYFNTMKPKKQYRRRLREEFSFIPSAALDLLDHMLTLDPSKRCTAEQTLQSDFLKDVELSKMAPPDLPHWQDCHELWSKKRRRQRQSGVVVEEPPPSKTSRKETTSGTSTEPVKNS
Sequence of CDK12/CycK (O75909 1-300 partner limits assumed): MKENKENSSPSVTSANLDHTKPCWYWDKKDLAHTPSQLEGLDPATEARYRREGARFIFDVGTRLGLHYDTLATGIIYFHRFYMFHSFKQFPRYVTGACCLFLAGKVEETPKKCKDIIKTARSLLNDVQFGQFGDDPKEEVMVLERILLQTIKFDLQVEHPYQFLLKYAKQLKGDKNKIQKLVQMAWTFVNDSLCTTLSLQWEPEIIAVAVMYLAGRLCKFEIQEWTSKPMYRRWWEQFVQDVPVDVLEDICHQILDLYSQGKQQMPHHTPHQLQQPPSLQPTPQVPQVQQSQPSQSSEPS

Consider `Brc1cnn2c(NCc3nc4c([nH]3)CCCC4)nc(N3CCOCC3)nc12` [Example 21, 8-bromo-2-(morpholin-4-yl)-N-[(4,5,6,7-tetrahydro-1H-benzimidazol-2-yl)methyl]pyrazolo[1,5-a][1,3,5]triazin-4-amine], for which the IC50 stood at 9640 nM in assay [1]; 31.8 nM in assay [2]; 161 nM in assay [3] (Homo sapiens, CAL-120, 96 h).

In the case of `CC1(N)CCN(c2nc(NCc3nc4ccccc4[nH]3)n3ncc(Br)c3n2)CC1` [Example 290, 2-(4-amino-4-methylpiperidin-1-yl)-N-[(1H-benzimidazol-2-yl)methyl]-8-bromopyrazolo[1,5-a][1,3,5]triazin-4-amine], the IC50 is over 19800 nM in assay [1]; 17.6 nM in assay [2]; 20.3 nM in assay [3] (Homo sapiens, CAL-120, 96 h).

With `Fc1ccc2[nH]c(CNc3nc(N4CCOCC4)nc4c([C@@H]5CC5(F)F)cnn34)nc2c1` (single isomer, unassigned) [Example 315, 8-[(1R or S)-2,2-difluorocyclopropyl]-N-[(5-fluoro-1H-benzimidazol-2-yl)methyl]-2-(morpholin-4-yl)pyrazolo[1,5-a][1,3,5]triazin-4-amine], the IC50 is over 19700 nM in assay [1]; 75.3 nM in assay [2]; 38.4 nM in assay [3] (Homo sapiens, CAL-120, 96 h).

For `Fc1ccc2[nH]c(CNc3nc(N4CCOCC4)nc4c(C5CC5(F)F)cnn34)nc2c1` (racemic) [Example 286, 8-[(1RS)-2,2-difluorocyclopropyl]-N-[(5-fluoro-1H-benzimidazol-2-yl)methyl]-2-(morpholin-4-yl)pyrazolo[1,5-a][1,3,5]triazin-4-amine], the IC50 was found to be 11300 nM in assay [1]; 10.6 nM in assay [2]; 20.8 nM in assay [3] (Homo sapiens, CAL-120, 96 h).

Regarding `NC12CC1CN(c1nc(NCc3nc4ccccc4[nH]3)n3ncc(Br)c3n1)C2` (stereo not shown) [Example 258, 2-(1-amino-3-azabicyclo[3.1.0]hexan-3-yl)-N-(1H-benzimidazol-2-ylmethyl)-8-bromo-pyrazolo[1,5-a][1,3,5]triazin-4-amine], the IC50 in assay [1] worked out at 4690 nM; in assay [2] it was 12.1 nM; in assay [3] (Homo sapiens, CAL-120, 96 h), 27.9 nM.

As to `Fc1ccc2[nH]c(CNc3nc(N4CC5CCC(C4)N5)nc4c(C(F)(F)F)cnn34)nc2c1F` [Example 310, 2-(3,8-diazabicyclo[3.2.1]octan-3-yl)-N-[(4,5-difluoro-1H-benzimidazol-2-yl)methyl]-8-(trifluoromethyl)pyrazolo[1,5-a][1,3,5]triazin-4-amine], the IC50 in assay [1] was determined as 1290 nM; in assay [2], 35.1 nM; in assay [3] (Homo sapiens, CAL-120, 96 h) it was 1.74 nM.

As for `Clc1cc2nc(CNc3nc(N4CCOCC4)nc4c(C5CC5)cnn34)[nH]c2cc1Cl` [Example 301, 8-cyclopropyl-N-[(5,6-dichloro-1H-benzimidazol-2-yl)methyl]-2-(morpholin-4-yl)pyrazolo[1,5-a][1,3,5]triazin-4-amine], the IC50 is 1180 nM in assay [1]; 6.73 nM in assay [2]; 5.74 nM in assay [3] (Homo sapiens, CAL-120, 96 h).

For the compound `OCC1CN(c2nc(NCc3nc4ccccc4[nH]3)n3ncc(Br)c3n2)C1` [Example 304, [1-(4-{[(1H-benzimidazol-2-yl)methyl]amino}-8-bromopyrazolo[1,5-a][1,3,5]triazin-2-yl)azetidin-3-yl]methanol], the IC50 came out at 12500 nM in assay [1] and 86.7 nM in assay [3] (Homo sapiens, CAL-120, 96 h).

As to `Brc1cnn2c(NCc3ncc(-c4ccccc4)[nH]3)nc(N3CCOCC3)nc12` [Example 23, 8-bromo-2-(morpholin-4-yl)-N-[(5-phenyl-1H-imidazol-2-yl)methyl]pyrazolo[1,5-a][1,3,5]triazin-4-amine], the IC50 in assay [1] stood at 1560 nM; in assay [2] it was 3.83 nM.

Regarding `Fc1ccc2[nH]c(CNc3nc(N4CCOCC4)nc4c(C5CCOCC5)cnn34)nc2c1F` [Example 276, N-[(4,5-difluoro-1H-benzimidazol-2-yl)methyl]-2-(morpholin-4-yl)-8-(oxan-4-yl)pyrazolo[1,5-a][1,3,5]triazin-4-amine], the IC50 in assay [1] was over 20000 nM; in assay [3] (Homo sapiens, CAL-120, 96 h), 165 nM.

Take `CC(C)CNc1nc(NCc2nc3ccccc3[nH]2)n2ncc(Br)c2n1` [Example 285, N^4-[(1H-benzimidazol-2-yl)methyl]-8-bromo-N^2-(2-methylpropyl)pyrazolo[1,5-a][1,3,5]triazine-2,4-diamine]: the IC50 was 6440 nM in assay [1] and 80.3 nM in assay [3] (Homo sapiens, CAL-120, 96 h).

As for `FC(F)(F)Cc1cnn2c(NCc3nc4ccccc4[nH]3)nc(N3CCOCC3)nc12.O=CO` [Example 265, formic acid-N-[(1H-benzimidazol-2-yl)methyl]-2-(morpholin-4-yl)-8-(2,2,2-trifluoroethyl)pyrazolo[1,5-a][1,3,5]triazin-4-amine (1/1)], the IC50 in assay [1] is over 16700 nM; in assay [3] (Homo sapiens, CAL-120, 96 h), 35.4 nM.

As for `Brc1cnn2c(NCc3nc4cccnc4[nH]3)nc(N3CCNCC3)nc12.O=CO` [Example 19, 8-bromo-N-[(3H-imidazo[4,5-b]pyridin-2-yl)methyl]-2-(piperazin-1-yl)pyrazolo[1,5-a][1,3,5]triazin-4-amine formic acid salt], the IC50 in assay [1] is 11500 nM.

`CN1CCN(c2nc(NCc3nc4ccccc4[nH]3)n3ncc(Br)c3n2)C(CO)C1` (single isomer, unassigned) [Example 280, [(2R or S)-1-(4-{[(1H-benzimidazol-2-yl)methyl]amino}-8-bromopyrazolo[1,5-a][1,3,5]triazin-2-yl)-4-methylpiperazin-2-yl]methanol]: the IC50 was found to be 14500 nM in assay [1] and 64.1 nM in assay [3] (Homo sapiens, CAL-120, 96 h).

With `Brc1cnn2c(NCc3nc4ccncc4[nH]3)nc(N3CCOCC3)nc12` [Example 22, 8-bromo-N-[(3H-imidazo[4,5-c]pyridin-2-yl)methyl]-2-(morpholin-4-yl)pyrazolo[1,5-a][1,3,5]triazin-4-amine], the IC50 in assay [1] was determined as 4000 nM; in assay [2] it was 131 nM.

With `Brc1cnn2c(NCc3nc4ccccc4[nH]3)nc(N3C[C@H]4CN[C@H]4C3)nc12.O=C(O)C(F)(F)F` [Example 255, trifluoroacetic acid-N-[(1H-benzimidazol-2-yl)methyl]-8-bromo-2-[(1R,5R)-3,6-diazabicyclo[3.2.0]heptan-3-yl]pyrazolo[1,5-a][1,3,5]triazin-4-amine (1/1)], the IC50 in assay [1] was over 20000 nM; in assay [3] (Homo sapiens, CAL-120, 96 h) it was 32.8 nM.

Take `C[C@@]1(O)CCN(c2nc(NCc3nc4ccccc4[nH]3)n3ncc(Br)c3n2)C1` (single isomer, unassigned) [Example 281, (3R or S)-1-(4-{[(1H-benzimidazol-2-yl)methyl]amino}-8-bromopyrazolo[1,5-a][1,3,5]triazin-2-yl)-3-methylpyrrolidin-3-ol]: the IC50 in assay [1] was over 16900 nM; in assay [3] (Homo sapiens, CAL-120, 96 h) it was 85.4 nM.

Take `c1ccc2[nH]c(CNc3nc(N4CCOCC4)nc4c(C5CCCC5)cnn34)nc2c1` [Example 244, N-[(1H-benzimidazol-2-yl)methyl]-8-cyclopentyl-2-(morpholin-4-yl)pyrazolo[1,5-a][1,3,5]triazin-4-amine]: the IC50 in assay [1] is over 20000 nM; in assay [3] (Homo sapiens, CAL-120, 96 h), 218 nM.

Turning to `CC1(O)CCN(c2nc(NCc3nc4ccccc4[nH]3)n3ncc(Br)c3n2)C1` (single isomer, unassigned) [Example 282, (3R or S)-1-(4-{[(1H-benzimidazol-2-yl)methyl]amino}-8-bromopyrazolo[1,5-a][1,3,5]triazin-2-yl)-3-methylpyrrolidin-3-ol], the IC50 in assay [1] was over 8950 nM; in assay [3] (Homo sapiens, CAL-120, 96 h), 45.2 nM.

`CC1CN(C)CCN1c1nc(NCc2nc3ccccc3[nH]2)n2ncc(Br)c2n1` (single isomer, unassigned; enantiomer 2) [Example 261, N-(1H-benzimidazol-2-ylmethyl)-8-bromo-2-[(2R or S)-2,4-dimethylpiperazin-1-yl]pyrazolo[1,5-a][1,3,5]triazin-4-amine (Enantiomer 2)]: the IC50 was over 18700 nM in assay [1] and 38.9 nM in assay [3].

For `Brc1cnn2c(NCc3nc4ccccc4[nH]3)nc(N3C[C@@H]4CN[C@@H]4C3)nc12.O=C(O)C(F)(F)F` [Example 267, trifluoroacetic acid-N-[(1H-benzimidazol-2-yl)methyl]-8-bromo-2-[(1S,5S)-3,6-diazabicyclo[3.2.0]heptan-3-yl]pyrazolo[1,5-a][1,3,5]triazin-4-amine (1/1)], the IC50 in assay [1] was over 20000 nM; in assay [3] (Homo sapiens, CAL-120, 96 h), 69.4 nM.

In the case of `Fc1ccc2[nH]c(CNc3nc(N4CCOCC4)nc4c(C5CCCC5)cnn34)nc2c1F` [Example 262, 8-cyclopentyl-N-[(4,5-difluoro-1H-benzimidazol-2-yl)methyl]-2-(morpholin-4-yl)pyrazolo[1,5-a][1,3,5]triazin-4-amine], the IC50 in assay [1] was over 5710 nM; in assay [3] (Homo sapiens, CAL-120, 96 h) it was 60.9 nM.

Consider `NC1(C(F)(F)F)CCN(c2nc(NCc3nc4ccccc4[nH]3)n3ncc(Br)c3n2)C1` (stereo not shown) [Example 266, 2-[3-amino-3-(trifluoromethyl)pyrrolidin-1-yl]-N-(1H-benzimidazol-2-ylmethyl)-8-bromo-pyrazolo[1,5-a][1,3,5]triazin-4-amine], for which the IC50 turned out to be 3480 nM in assay [1] and 102 nM in assay [3] (Homo sapiens, CAL-120, 96 h).
